Earlier results in patent publication US20200093949A1, “COMBINED ODOR ABSORPTION AND INSECT REPELLENT COMPOSITIONS, TREATMENTS, AND METHODS OF USE” (priority 2014, published 2020).

System: yellow fever mosquito
Conditions: compared with DEET

CCC(C)OC(=O)N1CCCCC1CCO (stereo not shown) [Picaridin, 2-(2-hydroxyethyl)-1-piperidine carboxylic acid 1-methylpropyl ester]
time of protection of guinea pigs from bites, post application: longer times
